Test results reported in patent US20020052295A1, “Diacyl derivatives of propylene diamine having herbicidal activity” (priority 1999, published 2002).

Columns and labels:
[1] = system: SORHA; experiment: Post-emergence herbicidal activity on SORHA (johnsongrass, seedling); assay type: in vivo, Sorghum halepense; settings: post-emergence spray; lowest tested rate with 80% or greater inhibition; about 14 days after treatment
Method in brief: (§1)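 Seedlings 9–14 days after planting were sprayed with compound in 50:50 acetone/water at 3,100 l/ha and 511 kPa, with unsprayed controls. Plants were then held in a greenhouse at 30/21° C. day/night. Percent inhibition versus controls was scored about 14 days after treatment.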

[2] = system: AMARE; experiment: Post-emergence herbicidal activity on AMARE (redroot pigweed); assay type: in vivo, Amaranthus retroflexus; settings: post-emergence spray; lowest tested rate with 80% or greater inhibition; about 14 days after treatment
Method in brief: as §1

[3] = system: CONAR; experiment: Post-emergence herbicidal activity on CONAR (field bindweed); assay type: in vivo, Convolvulus arvensis; settings: post-emergence spray; lowest tested rate with 80% or greater inhibition; about 14 days after treatment
Method in brief: as §1

[4] = system: SOLNI; experiment: Post-emergence herbicidal activity on SOLNI (black nightshade); assay type: in vivo, Solanum nigrum; settings: post-emergence spray; lowest tested rate with 80% or greater inhibition; about 14 days after treatment
Method in brief: as §1

[5] = system: CHEAL; experiment: Post-emergence herbicidal activity on CHEAL (common lambsquarters); assay type: in vivo, Chenopodium album; settings: post-emergence spray; lowest tested rate with 80% or greater inhibition; about 14 days after treatment
Method in brief: as §1

[6] = system: ABUTH; experiment: Pre-emergence herbicidal activity on ABUTH (velvetleaf); assay type: in vivo, Abutilon theophrasti
Method in brief: (§2)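 Steps: sterilized fertilized topsoil potted; seeds sown, covered; compound (50:50 acetone/water dilution) applied to soil surface; 0.64 cm overhead irrigation; greenhouse 30/21 °C day/night; % inhibition vs untreated scored at ~14 d; GR80 calculated.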

[7] = system: monocotyledonous species; experiment: Pre-emergence test (later test), GR80 on monocotyledonous species; assay type: in vivo; settings: average over monocotyledonous species
Text: (§3) All such uses, and the biological activity enabling such uses, are embraced by the term “herbicidal” herein. Tables 15 and 16 summarize results of tests conducted as described below to determine the pre-emergence herbicidal activity, in the form of a GR80 value, of illustrative compounds of this invention. […] Where herbicidal activity was evident but 80% inhibition was not achieved at the highest rate tested (typically 1000 g/ha), an asterisk (*) is shown in the following tables. Herbicidal activity evident in the form of symptoms of phytotoxicity, in the absence of at least 80% inhibition at any rate, is indicated in the tables by “phyto”. A blank cell in the following tables indicates no herbicidal or phytotoxic response at any rate tested.
(§4) The pre-emergence tests were conducted by the following procedure. Topsoil was sieved to pass through a 1.27 cm screen. Fertilizer was added to the topsoil and the mixture was then sterilized by heating. The topsoil mixture was placed in a pot and compacted to a depth of 1.0 to 1.25 cm from the top of the pot. Seeds of each of several monocotyledonous and dicotyledonous annual plant species were placed on top of the soil. […]
(§5) Approximately 14 days after planting and treating, the plants were observed and herbicidal efficacy recorded as percent inhibition by comparison with untreated plants. […]

[8] = system: CHEAL; experiment: Pre-emergence herbicidal activity on CHEAL (common lambsquarters); assay type: in vivo, Chenopodium album
Method in brief: as §2

[9] = system: CONAR; experiment: Pre-emergence herbicidal activity on CONAR (field bindweed); assay type: in vivo, Convolvulus arvensis
Method in brief: as §2

[10] = system: PANMI; experiment: Post-emergence herbicidal activity on PANMI (wild proso millet); assay type: in vivo, Panicum miliaceum; settings: post-emergence spray; lowest tested rate with 80% or greater inhibition; about 14 days after treatment
[11] = system: BRAPP; experiment: Pre-emergence herbicidal activity on BRAPP (broadleaf signalgrass); assay type: in vivo, Brachiaria platyphylla
Method in brief: as §2

[12] = system: PANDI; experiment: Pre-emergence herbicidal activity on PANDI (fall panicum); assay type: in vivo, Panicum dichotomiflorum
Method in brief: as §2

[13] = system: SORVU; experiment: Post-emergence herbicidal activity on SORVU (shattercane); assay type: in vivo, Sorghum vulgare; settings: post-emergence spray; lowest tested rate with 80% or greater inhibition; about 14 days after treatment
Method in brief: as §1

[14] = system: DATST; experiment: Pre-emergence herbicidal activity on DATST (jimsonweed); assay type: in vivo, Datura stramonium
Method in brief: as §2

[15] = system: SOLNI; experiment: Pre-emergence herbicidal activity on SOLNI (black nightshade); assay type: in vivo, Solanum nigrum
Method in brief: as §2

[16] = system: ECHCG; experiment: Pre-emergence herbicidal activity on ECHCG (barnyardgrass); assay type: in vivo, Echinochloa crus-galli
Method in brief: as §2

[17] = system: SETFA; experiment: Pre-emergence herbicidal activity on SETFA (giant foxtail); assay type: in vivo, Setaria faberi
Method in brief: as §2

[18] = system: AMARE; experiment: Pre-emergence herbicidal activity on AMARE (redroot pigweed); assay type: in vivo, Amaranthus retroflexus
Method in brief: as §2

[19] = system: ECHCG; experiment: Post-emergence herbicidal activity on ECHCG (barnyardgrass); assay type: in vivo, Echinochloa crus-galli; settings: post-emergence spray; lowest tested rate with 80% or greater inhibition; about 14 days after treatment
Method in brief: as §1

[20] = system: dicotyledonous species; experiment: Pre-emergence test (later test), average GR80 on dicotyledonous species; assay type: in vivo; settings: average over dicotyledonous species
Text: as §3, §4, §5

[21] = system: SORVU; experiment: Pre-emergence herbicidal activity on SORVU (shattercane); assay type: in vivo, Sorghum vulgare
Method in brief: as §2

[22] = system: CIRAR; experiment: Pre-emergence herbicidal activity on CIRAR (canada thistle, seedling); assay type: in vivo, Cirsium arvense
Method in brief: as §2

[23] = system: SORHA; experiment: Pre-emergence herbicidal activity on SORHA (johnsongrass, seedling); assay type: in vivo, Sorghum halepense
Method in brief: as §2

[24] = system: DIGSA; experiment: Pre-emergence herbicidal activity on DIGSA (large crabgrass); assay type: in vivo, Digitaria sanguinalis
Method in brief: as §2

[25] = system: BRAPP; experiment: Post-emergence herbicidal activity on BRAPP (broadleaf signalgrass); assay type: in vivo, Brachiaria platyphylla; settings: post-emergence spray; lowest tested rate with 80% or greater inhibition; about 14 days after treatment
Method in brief: as §1

[26] = system: PANMI; experiment: Pre-emergence herbicidal activity on PANMI (wild proso millet); assay type: in vivo, Panicum miliaceum
Method in brief: as §2

[27] = system: PANDI; experiment: Post-emergence herbicidal activity on PANDI (fall panicum); assay type: in vivo, Panicum dichotomiflorum; settings: post-emergence spray; lowest tested rate with 80% or greater inhibition; about 14 days after treatment
Method in brief: as §1

[28] = system: POROL; experiment: Pre-emergence herbicidal activity on POROL (common purslane); assay type: in vivo, Portulaca oleracea
Method in brief: as §2

[29] = system: ABUTH; experiment: Post-emergence herbicidal activity on ABUTH (velvetleaf); assay type: in vivo, Abutilon theophrasti; settings: post-emergence spray; lowest tested rate with 80% or greater inhibition; about 14 days after treatment
Method in brief: as §1

[30] = system: POROL; experiment: Post-emergence herbicidal activity on POROL (common purslane; table head prints PORAL); assay type: in vivo, Portulaca oleracea; settings: post-emergence spray; lowest tested rate with 80% or greater inhibition; about 14 days after treatment
Method in brief: as §1

[31] = system: DATST; experiment: Post-emergence herbicidal activity on DATST (jimsonweed); assay type: in vivo, Datura stramonium; settings: post-emergence spray; lowest tested rate with 80% or greater inhibition; about 14 days after treatment
Method in brief: as §1

[32] = system: DIGSA; experiment: Post-emergence herbicidal activity on DIGSA (large crabgrass); assay type: in vivo, Digitaria sanguinalis; settings: post-emergence spray; lowest tested rate with 80% or greater inhibition; about 14 days after treatment
[33] = system: SETFA; experiment: Post-emergence herbicidal activity on SETFA (giant foxtail); assay type: in vivo, Setaria faberi; settings: post-emergence spray; lowest tested rate with 80% or greater inhibition; about 14 days after treatment
Method in brief: as §1

[34] = lowest tested rate giving 80% or greater inhibition, approx. 14 days after planting and treating, greenhouse
[35] = racemic mixture vs enantiomers test, rates tested 1000, 650, 300, 200, 100, 65, 30 and 10 g/ha, lowest rate with 80% or greater inhibition

CC(CNC(=O)c1cccc(C(F)(F)F)c1)NC(=O)c1cccc(C(F)(F)F)c1 (stereo not shown) [Example 5, N,N′-(1,2-propanediylbis)-3-(trifluoromethyl)benzamide]
Post-emergence activity (GR80) SORHA [1]: [empty] | Post-emergence activity (GR80) AMARE [2]: 250 g/ha | Post-emergence activity (GR80) CONAR [3]: 750 g/ha | Post-emergence activity (GR80) SOLNI [4]: 1000 g/ha | Post-emergence activity (GR80) CHEAL [5]: 500 g/ha | Pre-emergence activity (GR80) on ABUTH [6, 34]: 1000 g/ha | Pre-emergence activity (GR80) ABUTH [6, 35]: * (Where herbicidal activity was evident but 80% inhibition was not achieved at the highest rate tested (typically 1000 g/ha), an asterisk (*) is shown) | pre-emergence GR80 on monocotyledonous species [7]: 1041 g/ha | Pre-emergence activity (GR80) on CHEAL [8, 34]: 250 g/ha | Pre-emergence activity (GR80) CHEAL [8, 35]: 100 g/ha | Pre-emergence activity (GR80) on CONAR [9, 34]: phyto | Pre-emergence activity (GR80) CONAR [9, 35]: phyto | Post-emergence activity (GR80) PANMI [10]: [empty] | Pre-emergence activity (GR80) on BRAPP [11, 34]: * (Where herbicidal activity was evident but 80% inhibition was not achieved at the highest rate tested (typically 1000 g/ha), an asterisk (*) is shown) | Pre-emergence activity (GR80) BRAPP [11, 35]: phyto | Pre-emergence activity (GR80) on PANDI [12, 34]: 500 g/ha | Pre-emergence activity (GR80) PANDI [12, 35]: 650 g/ha | Post-emergence activity (GR80) SORVU [13]: [empty] | Pre-emergence activity (GR80) on DATST [14, 34]: 500 g/ha | Pre-emergence activity (GR80) DATST [14, 35]: 1000 g/ha | Pre-emergence activity (GR80) on SOLNI [15, 34]: 750 g/ha | Pre-emergence activity (GR80) SOLNI [15, 35]: 300 g/ha | Pre-emergence activity (GR80) on ECHCG [16, 34]: phyto | Pre-emergence activity (GR80) ECHCG [16, 35]: phyto | Pre-emergence activity (GR80) on SETFA [17, 34]: * (Where herbicidal activity was evident but 80% inhibition was not achieved at the highest rate tested (typically 1000 g/ha), an asterisk (*) is shown) | Pre-emergence activity (GR80) SETFA [17, 35]: phyto | Pre-emergence activity (GR80) on AMARE [18, 34]: 125 g/ha | Pre-emergence activity (GR80) AMARE [18, 35]: 65 g/ha | Post-emergence activity (GR80) ECHCG [19]: [empty] | average pre-emergence GR80 on dicotyledonous species [20]: 535 g/ha | Pre-emergence activity (GR80) on SORVU [21, 34]: phyto | Pre-emergence activity (GR80) SORVU [21, 35]: phyto | Pre-emergence activity (GR80) on CIRAR [22, 34]: 250 g/ha | Pre-emergence activity (GR80) CIRAR [22, 35]: * (Where herbicidal activity was evident but 80% inhibition was not achieved at the highest rate tested (typically 1000 g/ha), an asterisk (*) is shown) | Pre-emergence activity (GR80) on SORHA [23, 34]: phyto | Pre-emergence activity (GR80) SORHA [23, 35]: phyto | Pre-emergence activity (GR80) on DIGSA [24, 34]: 250 g/ha | Pre-emergence activity (GR80) DIGSA [24, 35]: 200 g/ha | Post-emergence activity (GR80) BRAPP [25]: [empty] | Pre-emergence activity (GR80) on PANMI [26, 34]: phyto | Pre-emergence activity (GR80) PANMI [26, 35]: 650 g/ha | Post-emergence activity (GR80) PANDI [27]: [empty] | Pre-emergence activity (GR80) on PORAL [28, 34]: 250 g/ha | Pre-emergence activity (GR80) PORAL [28, 35]: 650 g/ha | Post-emergence activity (GR80) ABUTH [29]: 1000 g/ha | Post-emergence activity (GR80) PORAL [30]: 750 g/ha | Post-emergence activity (GR80) DATST [31]: 125 g/ha | Post-emergence activity (GR80) DIGSA [32]: [empty] | Post-emergence activity (GR80) SETFA [33]: [empty]
